Patent US10611750B2, “Tetrahydroquinoline compositions as bet bromodomain inhibitors” (FORMA Therapeutics, Inc., priority 2013, dated 2020)

Columns and labels:
[1] = tested on: acute myelocytic leukemia (AML) cell line MV4-11; assay: Oncology cell growth assay (3-day proliferation, CellTiter-Glo); assay type: cell-based; conditions: Homo sapiens, MV4-11, 72 h, MV4-11 cells, 3000 cells/well, compounds listed under IC50 range headings, read-out: MV411 IC50 (gIC50, inhibition of proliferation)
Summary of the method: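 Compounds were serially diluted 3-fold in DMSO, giving final well concentrations from 10 down to 0.0045 μM. MV4-11 cells were then seeded at 3000 cells/well in RPMI 1640 with 10% FBS and incubated 72 hours. CellTiter-Glo signal was measured and gIC50 obtained by four-parameter logistic regression.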

[2] = target: T1, BRD4 Bromodomain 1 (BRD4 BD1) (Homo sapiens, UniProt O60885); assay: AlphaScreen binding assay, BRD4 BD1; conditions: His-tagged BRD4 BD1 50 nM, biotinylated H4 (1-21) K5/8/12/16 tetra-acetylated peptide 50 nM, compounds listed under IC50 range headings
T1 construct: 44-168 and BRD4 BD2
Summary of the method: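 An AlphaScreen competition format was used with His-BRD4 BD1 or BD2 and biotin-H4 K5/8/12/16-acetyl peptide, each at matched final levels of 50 nM (BD1) or 100 nM (BD2). Incubation in HEPES/NaCl buffer with 0.1% BSA and 0.01% Triton X-100 ran ≥1 h before IC50 determination.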

IC50 [1]	IC50 [2]	Structure (SMILES)
< 500 nM	100 to 1000 nM	COC(=O)N1c2ccc(-c3cnn(C4CNC4)c3)c(Oc3cc(F)cc(F)c3)c2CC[C@@H]1C [I-180, (S)-methyl 6-(1-(azetidin-3-yl)-1H-pyrazol-4-yl)-5-(3,5-difluorophenoxy)-2-methyl-3,4-dihydroquinoline-1(2H)-carboxylate]
< 500 nM	100 to 1000 nM	COc1cccc(Oc2c(-c3cnn(C4CCNCC4)c3)ccc3c2CC[C@H](C)N3C(=O)C2CC2)n1 [I-98, (S)-cyclopropyl(5-(6-methoxypyridin-2-yloxy)-2-methyl-6-(1-(piperidin-4-yl)-1H-pyrazol-4-yl)-3,4-dihydroquinolin-1(2H)-yl)methanone]
< 500 nM	100 to 1000 nM	COC(=O)N1c2ccc(-c3cnn(C4CCNCC4)c3)c(Oc3cccc(OC)c3)c2CC[C@@H]1C [I-198, (S)-methyl 5-(3-methoxyphenoxy)-2-methyl-6-(1-(piperidin-4-yl)-1H-pyrazol-4-yl)-3,4-dihydroquinoline-1(2H)-carboxylate]
< 500 nM	100 to 1000 nM	COC(=O)N1c2ccc(-c3cnn(C4CCNCC4)c3)c(Oc3ccccn3)c2CC[C@@H]1C [I-96, (S)-methyl 2-methyl-6-(1-(piperidin-4-yl)-1H-pyrazol-4-yl)-5-(pyridin-2-yloxy)-3,4-dihydroquinoline-1(2H)-carboxylate]
< 500 nM	1000 to 10000 nM	CC(=O)N1c2c(F)cc(-c3cn(C)nn3)c(Oc3ccccc3)c2CC[C@@H]1C [I-323, (S)-1-(8-fluoro-2-methyl-6-(1-methyl-1H-1,2,3-triazol-4-yl)-5-phenoxy-3,4-dihydroquinolin-1(2H)-yl)ethanone]
< 500 nM	100 to 1000 nM	COC(=O)N1c2ccc(-c3cnn(C4CC5CN(C)CC5C4)c3)c(Oc3ccc(F)cc3)c2CC[C@@H]1C (stereo partly drawn) [I-250, (2S)-methyl 5-(4-fluorophenoxy)-2-methyl-6-(1-(2-methyl-octahydrocyclopenta[c]pyrrol-5-yl)-1H-pyrazol-4-yl)-3,4-dihydroquinoline-1(2H)-carboxylate]
< 500 nM	100 to 1000 nM	Cc1cccc(Oc2c(-c3cnn(C4CCNCC4)c3)ccc3c2CC[C@H](C)N3C(=O)C2CC2)n1 [I-331, (S)-cyclopropyl(2-methyl-5-(6-methylpyridin-2-yloxy)-6-(1-(piperidin-4-yl)-1H-pyrazol-4-yl)-3,4-dihydroquinolin-1(2H)-yl)methanone]

Structure (SMILES)	IC50 [1]	IC50 [2]
CNC(=O)c1nc(-c2ccc3c(c2OC2CCC2)CC[C@H](C)N3C(=O)OC)cs1 [I-130, (S)-methyl 5-cyclobutoxy-2-methyl-6-(2-(methylcarbamoyl)thiazol-4-yl)-3,4-dihydroquinoline-1(2H)-carboxylate]	< 500 nM	100 to 1000 nM
COC(=O)N1c2ccc(-c3csc(C4CNC4)n3)c(OC3CCC3)c2CC[C@@H]1C [I-313, (S)-methyl 6-(2-(azetidin-3-yl)thiazol-4-yl)-5-cyclobutoxy-2-methyl-3,4-dihydroquinoline-1(2H)-carboxylate]	> 1000 nM	100 to 1000 nM
C[C@H]1CCc2c(ccc(-c3cnn([C@@H]4CCNC[C@@H]4F)c3)c2OC2CCC2)N1C(=O)C1CC1 [I-369, (2S)-5-cyclobutoxy-1-cyclopropanecarbonyl-6-{1-[(3S,4R)-3-fluoropiperidin-4-yl]-1H-pyrazol-4-yl}-2-methyl-1,2,3,4-tetrahydroquinoline]	< 500 nM	100 to 1000 nM
CC(=O)N1c2c(F)c(F)c(-c3cnn(C4CCNCC4)c3)c(OC3CCC3)c2CC[C@@H]1C [I-106, (S)-1-(5-cyclobutoxy-7,8-difluoro-2-methyl-6-(1-(piperidin-4-yl)-1H-pyrazol-4-yl)-3,4-dihydroquinolin-1 (2H)-yl)ethanone]	> 1000 nM	1000 to 10000 nM
COC(=O)N1c2ccc(-c3cnn(C4CCNCC4OC)c3)c(OC3CCC3)c2CC[C@@H]1C (stereo partly drawn) [I-290, (2S)-methyl 5-cyclobutoxy-6-(1-(3-methoxypiperidin-4-yl)-1H-pyrazol-4-yl)-2-methyl-3,4-dihydroquinoline-1(2H)-carboxylate]	< 500 nM	100 to 1000 nM
